Test results reported in the supplement of paper PMC13380429.

Experiments:
Settings in all cases: 72 h
U2OS [1] = assay: relative viability EC50 (midpoint between 100% and the lowest measured viability); higher = less toxic
Calu-3 [2] = assay: as above
HepG2 [3] = assay: as above
Caco-2 [4] = assay: as above
Vero E6 [5] = assay: as above
U2OS [6] = assay: cell viability relative to DMSO; higher = less toxic
Calu-3 [7] = assay: as above
HepG2 [8] = assay: as above
Caco-2 [9] = assay: as above
Vero E6 [10] = assay: as above
U2OS [11] = assay: drug sensitivity score (DSS) for viability; higher = more toxic; extreme values may be limits of the assay
Calu-3 [12] = assay: as above
HepG2 [13] = assay: as above
Caco-2 [14] = assay: as above
Vero E6 [15] = assay: as above

Compound | relative viability EC50 (U2OS [1]) [µM] | relative viability EC50 (Calu-3 [2]) [µM] | relative viability EC50 (HepG2 [3]) [µM] | relative viability EC50 (Caco-2 [4]) [µM] | relative viability EC50 (Vero E6 [5]) [µM] | cell viability (U2OS [6]; 1 nM) [%] | cell viability (U2OS [6]; 10 nM) [%] | cell viability (U2OS [6]; 100 nM) [%] | cell viability (U2OS [6]; 1000 nM) [%] | cell viability (U2OS [6]; 10000 nM) [%] | cell viability (Calu-3 [7]; 1 nM) [%] | cell viability (Calu-3 [7]; 10 nM) [%] | cell viability (Calu-3 [7]; 100 nM) [%] | cell viability (Calu-3 [7]; 1000 nM) [%] | cell viability (Calu-3 [7]; 10000 nM) [%] | cell viability (HepG2 [8]; 1 nM) [%] | cell viability (HepG2 [8]; 10 nM) [%] | cell viability (HepG2 [8]; 100 nM) [%] | cell viability (HepG2 [8]; 1000 nM) [%] | cell viability (HepG2 [8]; 10000 nM) [%] | cell viability (Caco-2 [9]; 1 nM) [%] | cell viability (Caco-2 [9]; 10 nM) [%] | cell viability (Caco-2 [9]; 100 nM) [%] | cell viability (Caco-2 [9]; 1000 nM) [%] | cell viability (Caco-2 [9]; 10000 nM) [%] | cell viability (Vero E6 [10]; 1 nM) [%] | cell viability (Vero E6 [10]; 10 nM) [%] | cell viability (Vero E6 [10]; 100 nM) [%] | cell viability (Vero E6 [10]; 1000 nM) [%] | cell viability (Vero E6 [10]; 10000 nM) [%] | drug sensitivity score (U2OS [11]) | drug sensitivity score (Calu-3 [12]) | drug sensitivity score (HepG2 [13]) | drug sensitivity score (Caco-2 [14]) | drug sensitivity score (Vero E6 [15])
C=C1/C(=C\C=C2/CCC[C@]3(C)[C@@H]([C@H](C)/C=C/[C@@H](O)C4CC4)CC[C@@H]23)C[C@@H](O)C[C@@H]1O [calcipotriol] | > 10 | > 10 | > 10 | > 10 | > 10 | 99.5 | 96.9 | 99 | 94.8 | 93.5 | 95.4 | 108 | 102 | 93.7 | 96 | 101 | 88.5 | 95 | 99.6 | 94.6 | 94.7 | 88.6 | 99.6 | 88.3 | 89.9 | 97.5 | 96.7 | 98.2 | 92.3 | 91.9 | 0 | 0 | 0 | 0 | 0
c1coc(-c2nnc3sc(C4CCCCC4)nn23)c1 [cardionogen-1] | > 10 | > 10 | 1.69 | > 10 | > 10 | 95 | 100 | 95.9 | 97.8 | 93.3 | 109 | 97.4 | 109 | 102 | 97.1 | 98.7 | 97.1 | 99.4 | 88.3 | 44.6 | 100 | 94.7 | 104 | 81.1 | 89.7 | 98.3 | 97.1 | 95.5 | 98 | 86.6 | 0 | 0 | 4.9 | 2.2 | 0.3
CC(C)c1ccc(C(=O)N=C(N)N)cc1S(C)(=O)=O [cariporide] | > 10 | > 10 | > 10 | > 10 | > 10 | 100 | 98.2 | 100 | 96.1 | 97 | 102 | 96.7 | 93.6 | 96.3 | 106 | 102 | 84.4 | 89.7 | 98 | 95.6 | 109 | 107 | 102 | 89.7 | 107 | 102 | 101 | 106 | 108 | 92.3 | 0 | 0 | 0 | 0 | 0
NCCC(=O)N[C@@H](Cc1c[nH]cn1)C(=O)O [carnosine] | 3.07 | 3.08 | 3.22 | 2.08 | 2.74 | 96 | 97.2 | 92.3 | 99.1 | 28.7 | 95 | 93.4 | 104 | 99.4 | 48.6 | 111 | 101 | 97 | 101 | 12 | 99.5 | 97.8 | 92.3 | 88.6 | 15.4 | 94.3 | 95.3 | 95 | 95.5 | 17.9 | 4.1 | 2.8 | 4.8 | 6.6 | 5.2
NC(=O)CN1Cc2ccccc2OC1=O [caroxazone] | > 10 | > 10 | > 10 | > 10 | > 10 | 100 | 99 | 101 | 95.3 | 102 | 103 | 93.2 | 93.7 | 105 | 101 | 101 | 94.6 | 101 | 93.1 | 100 | 109 | 102 | 101 | 96 | 104 | 99.5 | 99.8 | 101 | 96.9 | 96.4 | 0 | 0 | 0 | 0 | 0
CC(=O)OCC1=C(C(=O)O)N2C(=O)[C@@H](NC(=O)Cc3cccs3)[C@H]2SC1 [cephalothin] | > 10 | > 10 | > 10 | > 10 | > 10 | 104 | 98.4 | 94.1 | 99.4 | 104 | 117 | 94.2 | 104 | 103 | 106 | 87.9 | 102 | 86 | 86.8 | 86.3 | 110 | 103 | 102 | 98.5 | 119 | 100 | 97.6 | 93.6 | 88.7 | 110 | 0 | 0 | 0.8 | 0 | 0
CC(CN(C)C)C(C)(O)Cc1ccc(Cl)cc1 (stereo not given) [clobutinol] | > 10 | > 10 | > 10 | > 10 | > 10 | 97.3 | 97.4 | 97.7 | 96.5 | 96.9 | 98.7 | 106 | 106 | 104 | 98.1 | 111 | 95.5 | 105 | 97.6 | 88.4 | 99.1 | 118 | 100 | 108 | 97.4 | 101 | 98.6 | 102 | 89.6 | 93.2 | 0 | 0 | 0.1 | 0 | 0.1
CC(C)(C)NCC(O)COc1cc(Cl)ccc1Cl (stereo not given) [cloranolol] | > 10 | > 10 | > 10 | > 10 | > 10 | 102 | 94.8 | 103 | 97.1 | 106 | 95 | 88.1 | 76.5 | 89.9 | 92.3 | 90.7 | 96.2 | 94.6 | 94.8 | 88.7 | 85.6 | 89.4 | 106 | 112 | 88.8 | 106 | 98.8 | 100 | 95.5 | 90 | 0 | 0 | 0 | 0 | 0
Nc1cc(C(Cl)=C(Cl)Cl)c(S(N)(=O)=O)cc1S(N)(=O)=O [clorsulon] | > 10 | > 10 | > 10 | > 10 | > 10 | 96.9 | 97 | 100 | 97 | 102 | 90.1 | 97.6 | 104 | 97.2 | 101 | 100 | 106 | 94.2 | 101 | 100 | 94.8 | 90.5 | 98.5 | 93.8 | 102 | 105 | 106 | 96.8 | 102 | 100 | 0 | 0 | 0 | 0 | 0
O=S(=O)(O)NC1CCCCC1 [cyclamic-acid] | > 10 | > 10 | > 10 | > 10 | > 10 | 98.1 | 100 | 96.8 | 101 | 96.3 | 101 | 99.7 | 90 | 101 | 97.8 | 112 | 99.5 | 97.8 | 98.8 | 105 | 107 | 106 | 85.7 | 98.4 | 93.5 | 108 | 99.8 | 101 | 99.1 | 106 | 0 | 0 | 0 | 0 | 0
Nc1nc(N)nc(NC2CC2)n1 [cyromazine] | > 10 | > 10 | > 10 | > 10 | > 10 | 94.9 | 93.4 | 97.8 | 96.7 | 103 | 105 | 92.6 | 95.7 | 84.6 | 103 | 96.3 | 105 | 99.8 | 95 | 104 | 99.6 | 99.8 | 108 | 95.3 | 96.1 | 92.8 | 98.2 | 93 | 99.1 | 109 | 0 | 0 | 0 | 0 | 0
Cc1ccccc1N1CCN(CCc2nnc3n2CCCC3)CC1 [dapiprazole] | > 10 | > 10 | > 10 | > 10 | > 10 | 99.2 | 105 | 96.2 | 106 | 102 | 106 | 102 | 92.9 | 102 | 101 | 99.8 | 104 | 92.9 | 94.3 | 102 | 106 | 99.9 | 86.9 | 98 | 92.5 | 92.9 | 93.2 | 97.6 | 98.9 | 92.8 | 0 | 0 | 0 | 0 | 0
CCOC(=O)[C@H](CCc1ccccc1)N[C@@H](C)C(=O)N(CC(=O)O)C1Cc2ccccc2C1 [delapril] | > 10 | > 10 | > 10 | > 10 | > 10 | 100 | 93.1 | 103 | 98.6 | 98 | 98.6 | 101 | 92.3 | 90.6 | 106 | 105 | 102 | 98.3 | 96.7 | 98 | 106 | 103 | 98.2 | 111 | 95.4 | 107 | 102 | 111 | 107 | 99.7 | 0 | 0 | 0 | 0 | 0
